Reference: PMC10272112 (Nature Communications, 2023)

How the values were obtained:
[1] = target: T1, HDAC8 (Homo sapiens, UniProt Q9BY41); experiment: Chemoproteomic competition pulldown assay; type: binding; design: endogenous in cells; host or cells: SW620 lysate; settings: iQ; for Kd: SW620, read-out: pKdapp (converted); for relative binding vs DMSO: SW620 lysate
T1 sequence (Q9BY41 1-377): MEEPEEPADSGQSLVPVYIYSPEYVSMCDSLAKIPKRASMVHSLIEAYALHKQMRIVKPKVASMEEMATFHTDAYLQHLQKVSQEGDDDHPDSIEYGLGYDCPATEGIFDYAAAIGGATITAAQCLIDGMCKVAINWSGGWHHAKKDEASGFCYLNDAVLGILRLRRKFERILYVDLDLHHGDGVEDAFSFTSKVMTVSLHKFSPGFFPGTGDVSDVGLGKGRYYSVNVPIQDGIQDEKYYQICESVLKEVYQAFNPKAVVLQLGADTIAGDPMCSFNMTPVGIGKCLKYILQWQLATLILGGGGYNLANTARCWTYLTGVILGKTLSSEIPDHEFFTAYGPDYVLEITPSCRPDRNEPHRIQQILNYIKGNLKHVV
Method: To identify proteins directly bound by lipoic acid, we employed a chemoproteomic competition assay. Briefly, (R/S)-LA was immobilized on sepharose beads via an amidation reaction to form an affinity matrix (abbreviated as iL; Fig. 1a). This affinity matrix can be incubated with cell lysate to pull down potential LA or LM target proteins and identify these targets via bottom-up proteomics. In a competition assay, free LA or LM were incubated with lysate at different concentrations before pulling down and quantifying target proteins. […] (Fig. 1b, see “Methods” for details). […] The lysate buffer used in this assay contains 1 mM DTT to mimic the intracellular reductive milieu and to reduce lipoic acid and LM. […] Additional competition assays performed in lung adenocarcinoma cell A549 lysate also identified HDAC1, HDAC2, and HDAC6 as targets (Supplementary Fig. 1b). Amongst the three cell lines tested, HDACs were the only confidently identified targets across the 1500–3000 proteins quantified in these assays. […] We validated the results by analogous pulldown competition assays using two other affinity matrices prepared via the immobilization of either the HDAC inhibitor Quisinostat (iQ) and an analog of the class IIa HDAC inhibitor Bürli’s 31[14] (iC)[12]. We have previously shown that these affinity matrices specifically bind to the active sites of HDACs and have used them for HDACi selectivity profiling. Indeed, binding of (R/S)-LA and (R/S)-LM to HDAC1, HDAC2, HDAC3, HDAC6, and, to a lesser extent, HDAC8 was confirmed in these assays (Supplementary Fig. 1c, d). No binding to class IIa HDACs or the recently discovered common HDAC inhibitor off-target MBLAC2 was observed (Supplementary Fig. 1e)[12]. […] This observation might reflect electrostatic repulsion between the HDAC10 active site gate-keeper glutamic acid residues[15],[16] and the terminal carboxylic acid of LA.
To assess the degree of protein depletion from lysates by the affinity matrix, a second pulldown (PDPD) with fresh beads was performed using the unbound protein fraction from the vehicle control flow through. The beads were washed (1 × 1 mL of lysis buffer without inhibitors and only 0.4% Igepal, 2 × 2 mL of lysis buffer without inhibitors and only 0.2% Igepal), and captured proteins were denatured with 8 M urea buffer, alkylated with 55 mM chloroacetamide and digested with Trypsin according to standard procedures. The resulting peptides were desalted on a C18 filter plate (Sep-Pak® tC18 µElution Plate, Waters), vacuum dried, and stored at −20 °C until LC–MSMS measurement.
For the competition assays, relative binding was calculated based on the protein intensity ratio to the DMSO control for every single inhibitor concentration. EC50 values were derived from a four-parameter log-logistic regression with variable slope (constrain: bottom > 0). The obtained EC50 values were multiplied with a protein-dependent correction factor (cf), resulting in the apparent Kd value (Kd^app). The correction factor is determined by calculating the ratio of the protein intensity of two consecutive pulldowns of the vehicle control sample[13]. Targets of the inhibitors were annotated manually according to published procedures[12],[46],[47]. […] Additionally, the number of unique peptides and MSMS counts per condition were taken into account. Positive target binding across several independent experiments performed with different cell lysates further substantiated our confidence for a true positive drug-target binding event.

[2] = target: T2, TwinStrep-GST-HDAC10 (Homo sapiens, UniProt Q969S8); experiment: HDAC10 TR-FRET assay; type: binding; settings: reducing conditions (0.5 M TCEP)
T2 sequence (Q969S8 1-669): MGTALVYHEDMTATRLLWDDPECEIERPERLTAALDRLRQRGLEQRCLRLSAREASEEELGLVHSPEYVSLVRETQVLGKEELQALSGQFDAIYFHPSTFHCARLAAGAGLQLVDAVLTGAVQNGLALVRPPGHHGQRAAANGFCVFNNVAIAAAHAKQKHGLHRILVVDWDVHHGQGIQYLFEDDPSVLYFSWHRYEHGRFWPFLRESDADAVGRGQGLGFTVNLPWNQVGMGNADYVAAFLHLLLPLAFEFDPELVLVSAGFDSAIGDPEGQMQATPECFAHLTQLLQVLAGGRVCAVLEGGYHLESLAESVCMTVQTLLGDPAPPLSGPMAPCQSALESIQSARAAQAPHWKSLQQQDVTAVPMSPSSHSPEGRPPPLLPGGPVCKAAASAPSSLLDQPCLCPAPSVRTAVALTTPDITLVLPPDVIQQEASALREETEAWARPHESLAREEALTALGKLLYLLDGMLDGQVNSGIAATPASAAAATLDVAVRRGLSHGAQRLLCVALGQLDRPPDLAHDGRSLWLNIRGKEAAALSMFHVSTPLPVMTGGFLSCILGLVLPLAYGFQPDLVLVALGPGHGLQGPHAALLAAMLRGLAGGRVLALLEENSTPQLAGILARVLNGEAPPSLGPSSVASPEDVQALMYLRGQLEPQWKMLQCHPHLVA
Method: To validate the inhibition of HDACs by LA and LM and elaborate on the structure-activity relationship (SAR) of enantiomers as well as oxidized versus reduced forms of the molecules, we performed enzyme activity assays for recombinant HDAC1,2,3,6,8 as well as FRET-based binding assay for recombinant HDAC10.
Inhibitors with a D300e Digital Dispenser (Tecan). After drug dosing to the premixed assay reagents in buffer, plates were shaken (800 rpm orbital shaker, 30 s), centrifuged (300g, 1 min), and incubated at RT in the dark for 90 min. TR-FRET was measured with a CLARIOstar (BMG Labtech) plate reader, equipped with TR-FRET filters.

SMILES | Kd [1] [µM] | relative binding vs DMSO ([1]; log10 M -3.52288) | relative binding vs DMSO ([1]; log10 M -4) | relative binding vs DMSO ([1]; log10 M -4.52288) | relative binding vs DMSO ([1]; log10 M -5) | relative binding vs DMSO ([1]; log10 M -5.52288) | relative binding vs DMSO ([1]; log10 M -6) | relative binding vs DMSO ([1]; log10 M -6.52288) | relative binding vs DMSO ([1]; log10 M -7) | fold lower affinity to HDAC10 compared to Vorinostat [2] [fold]
O=C(O)CCCCC1CCSS1 (racemic) [(R/S)-LA, (R/S)-lipoic acid] | 39.8 | 0.618 | 0.6642 | 1.003 | 1.048 | 1.024 | 1.06 | 0.9713 | 1.01 | ~200
NC(=O)CCCCC1CCSS1 (racemic) [(R/S)-LM, (R/S)-lipoamide] | 15.8 | 0.4707 | 0.4645 | 0.802 | 1.001 | 1.106 | 1.189 | 0.8797 | 0.9776 | 5
